Several values for one entry are separate records, joined by “and”; a condition that tells them apart may be missing. Equal entries are not always repeated. Structures can show the parent of a compound that is named as a salt. Where two headings read alike, the source gives them in different places.
How the values were obtained:
SUDHL5 cells [1] = tested on: SUDHL5 cells
Protocol: (§11) Therefore, cytotoxicity assays were run in parallel in SUDHL5 and SUDHL10 cells.
(§12) The different cell lines were plated in culture medium (RPMI 1640 [GIBCO #22400-089] supplemented with 10% Fetal Bovine Serum) at a density of 3,300 cells in 30 μL/well in a sterile, solid black, flat bottom, polystyrene, TC-treated 384-well microplate (Corning #3571) using Multidrop Combi Reagent Dispenser. As a control, medium without cells was also added to the plate. Cells were incubated in a humidified incubator at 37° C. overnight. […] Rim wells were excluded. The cells were incubated for 5 h hours in a humidified incubator at 37° C. After this incubation, 30 μL of CellTiter-Glo® Luminescent Cell Viability reagent (Promega, G7573) was added to each well using the Multidrop Combi Reagent Dispenser, followed by 15 min incubation on a shaker at room temperature. Finally, luminescence was read at 0.1 ms, with a gain of 3000 using the PHERAstar FS microplate reader (BMG Labtech).

SUDHL10 cells [2] = tested on: SUDHL10 cells
MV-4-11 cells = experiment: Antiproliferation assay (CellTiter-Glo, 72 h), MV-4-11; format: cell-based; conditions: IC50, median, MV-4-11, 72 h, read-out: Antiproli MV-4-11 [M] median
Procedure, shortened: (§1)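 Cells plated in treatment plates plus a day 0 reference plate; incubated 72 h at 37 °C; CellTiter-Glo added, 10 min incubation, luminescence read; day 0 plate read at time zero.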

BCL-XL = BCL-XL (Homo sapiens (Human), UniProt Q07817); experiment: Protein-protein interaction assay BCL-XL/Bad BH3 peptide (BCL-XL assay), TR-FRET; format: binding; conditions: IC50, median
Protocol: The dose-dependent inhibition by the compounds described in this invention of the interaction between BCL-XL and the BH3 domain of Bad (both human) was determined using a steady state binding competition assay with time-resolved fluorescence energy transfer (TR-FRET) readout.
(§2) For that, 100-fold concentrated DMSO solutions were prepared by serial dilutions (1:3.4) of a 2 mM stock solution in a clear, 384-well microtiter plate (Greiner Bio-One, Frickenhausen, Germany). From there, 50 nl were transferred in a dark test plate (Greiner Bio-One, Frickenhausen, Germany). […] This was followed by a 10-minute incubation step at 22° C. for pre-equilibration of the putative complex between His-BCL-XL and the compounds.
(§3) The mixture was incubated in the dark for one hour at 22° C. and then overnight at 4° C.
(§4) The resulting data (ratio) were normalized, taking 0% inhibition as the mean value of control measurements (usually 32 data points) where all reagents were included. In this case 50 nl DMSO were used instead of compounds. […] IC50 values were determined by regression analysis based on a 4 parameter equation (minimum, maximum, IC50, Hill; Y=Max+(Min−Max)/(1+(X/IC50)^Hill) using the Screener Software (Genedata).

SUDHL5 cells [3] = experiment: Antiproliferation assay (CellTiter-Glo, 72 h), SUDHL5; format: cell-based; conditions: IC50, median, SUDHL5, 72 h, read-out: Antiproli SUDHL5 [M] (median)
Procedure, shortened: as §1

MCL-1 = MCL-1 (Homo sapiens (Human), UniProt Q07820, K194A/K197A/R201A); experiment: Protein-protein interaction assay MCL-1/Noxa BH3 peptide (MCL-1 assay), TR-FRET; format: binding; conditions: IC50, median; MCL-1/Noxa BH3 TR-FRET
Protocol: The dose-dependent inhibition by the compounds described in this invention of the interaction between MCL-1 and the BH3 domain of Noxa (both human) was determined using a steady state binding competition assay with time-resolved fluorescence energy transfer (TR-FRET) readout. […] The MBP-MCL-1 was purchased from Beryllium (Bedford, Mass., USA). The expression and purification of this protein construct has been described elsewhere (DOI:10.1371/journal.pone.0125010). The Noxa BH3-derived peptide can be obtained from e.g. Biosyntan (Berlin, Germany), 50812.1.
as §2, with “MBP-MCL-1” for “His-BCL-XL”
as §3, §4

BCL-2 = BCL-2 (Homo sapiens (Human), UniProt P10415); experiment: Protein-protein interaction assay BCL-2/Bad BH3 peptide (BCL-2 assay), TR-FRET; format: binding; conditions: IC50, median; BCL-2/Bad BH3 TR-FRET
Protocol: The dose-dependent inhibition by the compounds described in this invention of the interaction between BCL-2 and the BH3 domain of Bad (both human) was determined using a steady state binding competition assay with time-resolved fluorescence energy transfer (TR-FRET) readout.
as §2, with “His-BCL-2” for “His-BCL-XL”
as §3, §4

SUDHL5 cells [4] = experiment: Induction of caspase-3/7 activity (Caspase-Glo 3/7), SUDHL5; format: cell-based; conditions: EC50, median, SUDHL5, 3 h treatment
Procedure, shortened: (§5)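 Caspase-3/7 activation serves as the apoptosis read-out for MCL-1 inhibition. Cells are treated with compound for 3 h at 37 °C and assayed with Caspase-Glo 3/7; values are corrected by subtracting medium-only background.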

SUDHL10 cells [5] = experiment: Induction of caspase-3/7 activity (Caspase-Glo 3/7), SUDHL10; format: cell-based; conditions: EC50, median, SUDHL10, 3 h treatment
Procedure, shortened: as §5

AMO-1 cells = experiment: Antiproliferation assay (CellTiter-Glo, 72 h), AMO-1; format: cell-based; conditions: IC50, median, AMO-1, 72 h, read-out: Antiproli AMO-1 [M] median
Procedure, shortened: as §1

SUDHL5 cells [6] = experiment: Induction of cytotoxicity (CellTiter-Glo, 5 h), SUDHL5; conditions: SUDHL5, 5 h
Protocol: as §11, §12

NCI-H23 cells = experiment: Antiproliferation assay (CellTiter-Glo, 72 h), NCI-H23; format: cell-based; conditions: NCI-H23, 72 h, read-out: Antiproli NCI-H23 [M] median
Protocol: (§6) Assessment of the Anti-Proliferative Effect of Compounds in Different Cell Lines
(§7) The impact of compounds on the proliferation of different cell lines was assessed using the CellTiter-Glo® Luminescent Cell Viability reagent from Promega (G7573).
(§8) In parallel, cells were plated in a reference (day 0) plate for time zero determination.
(§9) Rim wells were excluded. The cells were incubated for 72 h hours in a humidified incubator at 37° C. The day 0 plate was measured by adding 30 μL/well of CTG solution (CellTiter-Glo® Luminescent Cell Viability reagent, Promega G7573) to time zero wells in the reference plate followed by a 10 minutes incubation and luminescence reading at 0.1 ms. using the PHERAstar FS microplate reader (BMG Labtech).
(§10) After 72 h incubation, the treated plates were measured in the same way as the day 0 plate mentioned above.

HMC-1-8 cells = experiment: Antiproliferation assay (CellTiter-Glo, 72 h), HMC-1-8; format: cell-based; conditions: IC50, median, HMC-1-8, 72 h, read-out: Antiproli HMC-1-8 [M] median
Procedure, shortened: as §1

SK-BR-3 cells = experiment: Antiproliferation assay (CellTiter-Glo, 72 h), SK-BR-3; format: cell-based; conditions: SK-BR-3, 72 h, IC50, median, read-out: Antiproli SK-BR-3 [M] median
Protocol: as §6, §7, §8, §9, §10

SUDHL10 cells [7] = experiment: Induction of cytotoxicity (CellTiter-Glo, 5 h), SUDHL10; conditions: SUDHL10, 5 h
A2058 cells = experiment: Antiproliferation assay (CellTiter-Glo, 72 h), A2058; format: cell-based; conditions: A2058, 72 h, read-out: Antiproli A2058 [M] median
Protocol: as §6, §7, §8, §9, §10

SUDHL10 cells [8] = experiment: Antiproliferation assay (CellTiter-Glo, 72 h), SUDHL10; format: cell-based; conditions: IC50, median, SUDHL10, 72 h, read-out: Antiproli SUDHL10 [M] (median)
Protocol: as §6, §7, §8, §9, §10

T47D cells = experiment: Antiproliferation assay (CellTiter-Glo, 72 h), T47D; format: cell-based; conditions: IC50, median, T47D (head printed T4713), read-out: Antiproli T4713 [M] median
Protocol: as §6, §7, §8, §9, §10

SNU-389 cells = experiment: Antiproliferation assay (CellTiter-Glo, 72 h), SNU-389; format: cell-based; conditions: IC50, median; SNU-389, 72 h; read-out: Antiproli SNU-389 [M] median
Procedure, shortened: as §1

DMS-114 cells = experiment: Antiproliferation assay (CellTiter-Glo, 72 h), DMS-114; format: cell-based; conditions: IC50, median; DMS-114, 72 h; read-out: Antiproli DMS-114 [M] median
Procedure, shortened: as §1

[9] = read-out: Cytotox SUDHL5 [M] (median), IC50, median
[10] = read-out: Cytotox SUDHL10 [M] (median), IC50, median

Chain of BCL-2 (P10415 1-211): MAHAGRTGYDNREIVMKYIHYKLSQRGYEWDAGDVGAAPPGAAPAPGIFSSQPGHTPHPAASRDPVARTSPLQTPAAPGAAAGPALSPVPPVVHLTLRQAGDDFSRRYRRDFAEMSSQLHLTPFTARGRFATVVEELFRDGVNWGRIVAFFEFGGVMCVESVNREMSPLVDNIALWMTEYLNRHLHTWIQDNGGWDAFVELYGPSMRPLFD
Chain of BCL-XL (Q07817 1-212): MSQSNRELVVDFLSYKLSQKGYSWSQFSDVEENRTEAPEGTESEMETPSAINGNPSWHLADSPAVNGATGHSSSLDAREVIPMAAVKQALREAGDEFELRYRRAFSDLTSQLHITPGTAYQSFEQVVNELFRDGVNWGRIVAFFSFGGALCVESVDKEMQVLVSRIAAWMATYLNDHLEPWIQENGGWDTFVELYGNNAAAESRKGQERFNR
Chain of MCL-1 (Q07820 whole entry K194A/K197A/R201A, looked up, the tested form may be a part): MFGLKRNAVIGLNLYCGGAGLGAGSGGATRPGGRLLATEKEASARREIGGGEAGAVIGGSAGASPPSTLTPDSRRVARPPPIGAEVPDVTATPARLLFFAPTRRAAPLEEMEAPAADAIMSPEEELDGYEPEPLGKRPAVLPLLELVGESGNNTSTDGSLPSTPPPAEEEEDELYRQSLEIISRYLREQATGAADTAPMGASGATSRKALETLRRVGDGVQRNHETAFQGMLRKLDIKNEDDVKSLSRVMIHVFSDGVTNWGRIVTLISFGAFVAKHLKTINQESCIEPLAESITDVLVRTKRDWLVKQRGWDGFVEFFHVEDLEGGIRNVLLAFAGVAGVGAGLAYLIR

Structure (SMILES) | IC50 (MV-4-11 cells) | IC50 (SUDHL5 cells [3]) | EC50 (SUDHL5 cells [4]) | EC50 (SUDHL10 cells [5]) | IC50 (AMO-1 cells) | IC50 (SUDHL5 cells [6]; [9]) | IC50 (SK-BR-3 cells) | IC50 (SUDHL10 cells [7]; [10]) | IC50 (SNU-389 cells) | IC50 (HMC-1-8 cells) | IC50 (DMS-114 cells) | IC50 (A2058 cells; IC50, median) | also measured
CCc1c2c(nn1C)COC/C=C\Cn1c(C(=O)O)c(CCCOc3cccc4ccccc34)c3ccc(Cl)c-2c31 (racemic) [Example 18, (rac)-(11Z)-4-chloro-3-ethyl-2-methyl-7-[3-(naphthalen-1-yloxy)propyl]-2,10,13,15-tetrahydropyrazolo[4′,3′:9,10][1,6]oxazacycloundecino[8,7,6-hi]indole-8-carboxylic acid] | 4.71e-06 M | 1.4e-06 M | 1.1 µM | 1.3 µM | – | – | – | – | – | – | – | – | IC50 (SUDHL5 cells [1]): 1.2 µM; IC50 (SUDHL10 cells [2]): 1.3 µM; IC50 (BCL-XL): > 20 µM; IC50 (MCL-1): 0.0013 µM; IC50 (BCL-2): > 20 µM and 19 µM and 20 µM
Cc1c2c(nn1C)COCCCCn1c(C(=O)O)c(CCCOc3cccc4ccccc34)c3ccc(Cl)c-2c31 (racemic) [Example 25, (rac)-4-chloro-2,3-dimethyl-7-[3-(naphthalen-1-yloxy)propyl]-2,10,11,12,13,15-hexahydropyrazolo[4′,3′:9,10][1,6]oxazacycloundecino[8,7,6-hi]indole-8-carboxylic acid] | – | – | – | – | – | – | – | – | – | – | – | – | IC50 (AMO-1 cells; Homo sapiens, AMO1, 72 h): 1.3e-06 M; IC50 (MV-4-11 cells; Homo sapiens, MV4-11, 72 h): 2.78e-06 M; IC50 (SUDHL5 cells [6]; Homo sapiens, SU-DHL-5, 5 h, read-out: Cytotox SUDHL5 [M] (median), IC50, median): 5.3e-07 M; IC50 (SUDHL5 cells [3]; Homo sapiens, SU-DHL-5, 72 h): 5.6e-07 M; IC50 (NCI-H23 cells; Homo sapiens): 6.01e-06 M; IC50 (HMC-1-8 cells; 72 h): 6.5e-06 M; IC50 (SK-BR-3 cells; Homo sapiens): 1.29e-05 M; EC50 (SUDHL5 cells [4]; Homo sapiens, SU-DHL-5, 3 h): 0.39 µM; IC50 (SUDHL10 cells [7]; Homo sapiens, SU-DHL10, 5 h, read-out: Cytotox SUDHL10 [M] (median), IC50, median): 9.3e-07 M; IC50 (A2058 cells; Homo sapiens): 2.19e-05 M; EC50 (SUDHL10 cells [5]; Homo sapiens, SU-DHL10, 3 h): 1.2 µM
CCc1nn(CCN2CCOCC2)c2c1-c1c(Cl)ccc3c(CCCOc4cccc5ccccc45)c(C(=O)O)n(c13)CCCCOC2 (single isomer, unassigned; enantiomer 1) [Example 9, 4-chloro-3-ethyl-1-[2-(morpholin-4-yl)ethyl]-7-[3-(naphthalen-1-yloxy)propyl]-1,10,11,12,13,15-hexahydropyrazolo[4′,3′:9,10][1,6]oxazacycloundecino[8,7,6-hi]indole-8-carboxylic acid-N-ethylethanamine salt (Enantiomer 1)] | 8.23e-07 M | 3.7e-07 M | 0.27 µM | 0.33 µM | 8.7e-07 M | 2.9e-07 M | 1.08e-06 M | 3.4e-07 M | – | – | – | – | IC50 (SUDHL10 cells [8]; Homo sapiens, SU-DHL10, 72 h): 2.7e-07 M
Cc1c2c(nn1C)COCCCCn1c(C(=O)O)c(CCCOc3cccc4cc(F)ccc34)c3ccc(Cl)c-2c31 (single isomer, unassigned; enantiomer 1) [Example 15, (+)-4-chloro-7-{3-[(6-fluoronaphthalen-1-yl)oxy]propyl}-2,3-dimethyl-2,10,11,12,13,15-hexahydropyrazolo[4′,3′:9,10][1,6]oxazacycloundecino[8,7,6-hi]indole-8-carboxylic acid-N-ethylethanamine salt (Enantiomer 1)] | 4.61e-07 M | 1.9e-07 M | 0.12 µM | 0.15 µM | 5.3e-07 M | 1.4e-07 M | – | 2.3e-07 M | 9.28e-07 M | 1.4e-06 M | 6.42e-07 M | 5.86e-06 M | IC50 (SUDHL10 cells [8]): 2e-07 M; IC50 (T47D cells): 1.19e-05 M
Cc1c2c(nn1C)COCCCCn1c(C(=O)O)c(CCCOc3cccc4ccccc34)c3ccc(Cl)c-2c31 (single isomer, unassigned; enantiomer 1) [Example 26, 4-chloro-2,3-dimethyl-7-[3-(naphthalen-1-yloxy)propyl]-2,10,11,12,13,15-hexahydropyrazolo-[4′,3′:9,10][1,6]oxazacycloundecino[8,7,6-hi]indole-8-carboxylic acid-N-ethylethanamine salt (Enantiomer 1)] | 1.81e-06 M | 5.8e-07 M | 0.25 µM | 0.41 µM | 1e-06 M | 4.6e-07 M | 3.3e-06 M | 5e-07 M | 1.66e-06 M | 2.9e-06 M | 1.76e-06 M | 1.49e-05 M | IC50 (NCI-H23 cells; IC50, median): 2.32e-06 M

— patent publication US11478451B1, “Macrocyclic chlorine substituted indole derivatives” (Bayer Aktiengesellschaft, priority 2017, dated 2022)
